In PMC11597202, “Novel Thiazole-Fused [4,5-g] or [5,4-g]Quinazolin-8-ones and Their Quinazoline Analogues: Synthesis and Biological Evaluation” (Pharmaceuticals, 2024):

Legend:
GSK-3β = target: T1, GSK-3β (Homo sapiens, UniProt P49841); test: ADP-Glo kinase inhibition assay, GSK-3β; assay type: biochemical; conditions: percentage of maximum activity of the DMSO control, mean n = 2, 10 µM ATP, read-out: Residual activity GSK-3β; for remaining activity at 1 µM: 1 μM compound; for remaining activity at 10 µM: 10 μM compound
T1 construct: host or cells: Sf9 insect cells (baculovirus)
T1 sequence (P49841 whole entry): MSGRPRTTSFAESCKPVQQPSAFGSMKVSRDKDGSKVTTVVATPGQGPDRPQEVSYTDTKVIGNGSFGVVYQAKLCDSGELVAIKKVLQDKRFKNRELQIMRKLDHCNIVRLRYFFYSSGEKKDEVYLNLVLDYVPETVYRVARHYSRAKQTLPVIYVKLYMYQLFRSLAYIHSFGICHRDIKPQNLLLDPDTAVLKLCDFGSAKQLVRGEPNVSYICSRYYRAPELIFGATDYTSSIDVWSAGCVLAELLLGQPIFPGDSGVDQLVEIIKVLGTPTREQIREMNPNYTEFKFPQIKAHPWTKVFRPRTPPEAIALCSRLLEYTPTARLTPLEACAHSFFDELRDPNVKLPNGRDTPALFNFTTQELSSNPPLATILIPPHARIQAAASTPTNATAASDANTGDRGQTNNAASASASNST
Description: (§1) Kinase enzymatic activities were assayed in 384-well plates using the ADP-Glo^TM assay kit (Promega, Madison, WI, USA) according to the recommendations of the manufacturer. This luminescent ADP detection assay was described by Zegzouti and co-workers and provides a homogeneous and high-throughput screening method to measure kinase activity by quantifying the amount of ADP produced during a kinase reaction. Briefly, the reactions were carried out in a final volume of 6 µL for 30 min at 30 °C in an appropriate kinase buffer (10 mM MgCl2, 1 mM EGTA, 1 mM DTT, 25 mM Tris-HCl pH 7.5, 50 µg/mL heparin), with peptide or protein as substrate in the presence of 10 µM ATP. Peptide substrates were obtained from ProteoGenix (Schiltigheim, France) or Sigma for Histone H1, Poly (L-glutamic acid–L-tyrosine) sodium salt, Casein and MBP. After that, 6 µL of ADP-Glo^TM Kinase Reagent was added to stop the kinase reaction. After an incubation time of 50 min at room temperature (rt), 12 µL of Kinase Detection Reagent was added for one hour at rt. The transmitted signal was measured using the Envision (PerkinElmer, Waltham, MA, USA) microplate luminometer and expressed as Relative Light Units (RLUs). Kinase activities are expressed as percentages of remaining kinase activities detected after treatment with 1 or 10 µM of the tested compounds. The maximum kinase activity was measured in the absence of inhibitor but with an equivalent dose of DMSO (solvent of the tested compounds).
(§2) 3. Kinase inhibition assays
(§3) Kinase enzymatic activities were assayed in 384-well plates using the ADP-GloTM assay kit (Promega, Madison, WI) according to the recommendations of the manufacturer. This luminescent ADP detection assay was described by Zegzouti and co-workers and provides a homogeneous and high-throughput screening method to measure kinase activity by quantifying the amount of ADP produced during a kinase reaction. Briefly, the reactions were carried out in a final volume of 6 µl for 30 min at 30°C in appropriate kinase buffer (10 mM MgCl2, 1 mM EGTA, 1 mM DTT, 25 mM Tris-HCl pH 7.5, 50 µg/mL heparin), with peptide or protein as substrate in the presence of 10 µM ATP. Peptide substrates were obtained from ProteoGenix (Schiltigheim, France) or Sigma for Histone H1, Poly (L-glutamic acid – L-tyrosine) sodium salt, Casein and MBP. After that, 6 µL of ADP-GloTM Kinase Reagent was added to stop the kinase reaction. After an incubation time of 50 min at room temperature (rt), 12 µL of Kinase Detection Reagent was added for 1 h at rt. The transmitted signal was measured using the Envision (PerkinElmer, Waltham, MA) microplate luminometer and expressed in Relative Light Unit (RLU). Kinase activities are expressed in percentages of remaining kinase activities detected after treatment with 1 or 10 µM of the tested compounds. The maximal kinase activity is measured in the absence of inhibitor but with an equivalent dose of DMSO (solvent of the tested compounds).
(§4) Table. Human protein kinases tested in the panel: CDK9, HASPIN, PIM1, GSK3b, CK1ε, JAK3, CLK1 […]
(§5) 1 Peptide substrates were obtained from ProteoGenix (Schiltigheim, France) or Sigma for Histone H1, Poly (L-glutamic acid – L-tyrosine) sodium salt, Casein and MBP; 2 “Sp” stands for phosphorylated serine.
(§6) Controls inhibitors: To validate each kinase assay, the following model inhibitors were used under the same conditions than the tested compounds: Staurosporine from Streptomyces sp.

[1] = In vitro cytotoxic assay, Caco-2; assay type: cell-based; conditions: human, Caco-2 cells (colon cancer cell line); note: 0.1-25 µM tested
Description: (§7) Skin normal fibroblastic cells were purchased from Lonza (Basel, Switzerland). […] All culture media were supplemented by 10% of FBS, 1% of penicillin–streptomycin and 2 mM glutamine.
(§8) Chemicals were solubilized in DMSO at a concentration of 10 mM (stock solution) and diluted in culture medium to the desired final concentrations. […] Cells were plated in 96-well plates (4000 cells/well). Twenty-four hours after seeding, the cells were exposed to chemicals. […] Image acquisition and analysis were performed using a Cellomics ArrayScan VTI/HCS Reader (ThermoScientific, Les Ulis, France). The survival percentages were calculated as the percentage of cell number after compound treatment over cell number after DMSO treatment. The relative IC50 values were calculated using the curve fitting XLfit 5.5.0.5 (idbs) integrated in Microsoft Excel as an add-on.
(§9) 4.3.1. Cell culture. Skin normal fibroblastic cells are purchased from Lonza (Basel, Switzerland). Huh7- […]
(§10) from ATCC (American Type Culture Collection). […]
(§11) supplemented by 10% of FBS, 1% of penicillin-streptomycin and 2 mM glutamine.
(§12) 4.3.2. Cytotoxic assay. Chemicals were solubilized in DMSO at a concentration of 10 mM (stock solution) and diluted in culture medium to the desired final concentrations. The dose effect cytotoxic assays (IC50 determination) were performed by increasing the concentrations of each chemical (final well […]
(§13) Cells were plated in 96-well plates
(§14) (4000 cells/well). Twenty-four hours after seeding, cells were exposed to chemicals. After 48h of treatment, cells were washed in PBS and fixed in cooled 90% ethanol/5% acetic acid for 20 min and the […]
(§15) Image acquisition and analysis were performed using a Cellomics ArrayScan VTI/HCS Reader (ThermoScientific). The survival percentages were calculated as the percentage of cell number after compound treatment over cell number after DMSO treatment. The relative IC50 were calculated using the curve fitting XLfit 5.5.0.5 (idbs) integrated in Microsoft Excel as an add-on. The 4 Parameter Logistic Model or Sigmoidal Dose-Response Model describing the sigmoid-shaped response pattern was used (fit = (A+[(B-A)/(1+[(C/x)^D])]) where fit is the response and X is the tested concentration of the compound. The lower asymptote is A (also referred to as the bottom of the curve or lower plateau or the min) and the upper asymptote is B (also referred to as the top of the curve or upper plateau or the max). The slope of the linear part of the curve is described by the factor D. The parameter C is the concentration corresponding to the response midway between A and B. C is called “relative IC50” because it refers to the maximum response obtained by a […]
(§16) The results are represented as the mean ± standard error (SE) calculated from at least three independent experiments.

[2] = In vitro cytotoxic assay, PC-3; assay type: cell-based; conditions: human, PC-3 cells (prostate cancer cell line); note: 0.1-25 µM tested
Description: as §7, §8, §9, §10, §11, §12, §13, §14, §15, §16

DYRK1A = target: T2, DYRK1A (Homo sapiens, UniProt Q13627); test: ADP-Glo kinase inhibition assay, DYRK1A; assay type: biochemical; conditions: percentage of maximum activity of the DMSO control, mean n = 2, 10 µM ATP, read-out: Residual activity DYRK1A; for remaining activity at 1 µM: 1 μM compound; for remaining activity at 10 µM: 10 μM compound
T2 construct: host or cells: Sf9 insect cells (baculovirus)
Description: as §1, §2, §3, §4, §5, §6

CLK1 = target: T3, CLK1 (Homo sapiens, UniProt P49759); test: ADP-Glo kinase inhibition assay, CLK1; assay type: biochemical; conditions: percentage of maximum activity of the DMSO control, mean n = 2, 10 µM ATP, read-out: Residual activity CLK1; for remaining activity at 1 µM: 1 μM compound; for remaining activity at 10 µM: 10 μM compound
T3 construct: host or cells: Sf9 insect cells (baculovirus)
T3 sequence (P49759 whole entry): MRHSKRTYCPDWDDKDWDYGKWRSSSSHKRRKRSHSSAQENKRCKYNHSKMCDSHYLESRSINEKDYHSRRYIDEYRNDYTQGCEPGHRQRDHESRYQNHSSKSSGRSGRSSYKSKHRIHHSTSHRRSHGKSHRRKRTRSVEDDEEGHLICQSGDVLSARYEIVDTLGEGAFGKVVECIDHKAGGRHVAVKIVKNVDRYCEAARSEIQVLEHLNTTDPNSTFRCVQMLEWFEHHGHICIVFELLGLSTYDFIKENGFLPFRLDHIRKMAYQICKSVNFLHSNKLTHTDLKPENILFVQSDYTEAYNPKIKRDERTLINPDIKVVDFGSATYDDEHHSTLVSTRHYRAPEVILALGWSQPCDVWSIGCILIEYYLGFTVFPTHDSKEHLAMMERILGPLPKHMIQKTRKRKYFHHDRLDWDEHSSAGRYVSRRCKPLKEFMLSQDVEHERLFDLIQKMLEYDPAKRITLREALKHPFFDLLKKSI
Description: as §1, §2, §3, §4, §5, §6

SMILES | remaining activity at 1 µM (GSK-3β) | remaining activity at 10 µM (GSK-3β) | remaining activity at 1 µM (DYRK1A) | remaining activity at 10 µM (DYRK1A) | remaining activity at 1 µM (CLK1) | remaining activity at 10 µM (CLK1) | IC50 at 48 h [1] | IC50 at 48 h [2]
COC(=N)c1nc2cc3c(=O)n(Cc4ccccc4)cnc3cc2s1 [Compound 6a, Methyl 7-benzyl-8-oxo-7,8-dihydrothiazolo[4,5-g]quinazoline-2-carbimidate] | 94% | 76% | 100% | 103% | 97% | 96% | 17 µM | 20 µM
COC(=N)c1nc2cc3ncn(Cc4ccccc4)c(=O)c3cc2s1 [Compound 6b, Methyl 7-benzyl-8-oxo-7,8-dihydrothiazolo[5,4-g]quinazoline-2-carbimidate] | 101% | 107% | 103% | 109% | 100% | 102% | 2 µM | 2 µM
COC(=N)c1nc2ccc3ncnc(Nc4ccc(OC)cc4F)c3c2s1 [Compound II, methyl 9-[(2-fluoro-4-methoxyphenyl)amino]thiazolo[5,4-f]quinazoline-2-carbimidate, reference compound] |  |  |  |  |  |  | 3 µM | 4 µM
COC(=N)c1nc2c(ccc3c(=O)n(Cc4ccccc4)cnc32)s1 [Compound 6c, Methyl 7-benzyl-6-oxo-6,7-dihydrothiazolo[5,4-h]quinazoline-2-carbimidate] | 81% | 91% | 100% | 68% | 95% | 84% | 6 µM | 8 µM

More lines, main results first:

remaining activity at 1 µM (GSK-3β) | remaining activity at 10 µM (GSK-3β) | remaining activity at 1 µM (DYRK1A) | remaining activity at 10 µM (DYRK1A) | remaining activity at 1 µM (CLK1) | remaining activity at 10 µM (CLK1) | SMILES | IC50 at 48 h [1] | IC50 at 48 h [2]
73% | 23% | 62% | 21% | 75% | 27% | COC(=N)c1nc2ccc3ncn(Cc4ccccc4)c(=O)c3c2s1 [Compound I, methyl 8-benzyl-9-oxo-8,9-dihydrothiazolo[5,4-f]quinazoline-2-carbimidate, reference compound] | 12 µM | 20 µM
101% | 104% | 95% | 101% | 102% | 105% | COC(=N)c1nc2cc3ncnc(Nc4ccc(OC)cc4F)c3cc2s1 [Compound 15b, Methyl 8-[(2-fluoro-4-methoxyphenyl)amino]thiazolo[5,4-g]quinazoline-2-carbimidate] |  | 
94% | 105% | 83% | 63% | 89% | 73% | COC(=N)c1nc2ccc3c(=O)n(Cc4ccccc4)cnc3c2s1 [Compound 6d, Methyl 7-benzyl-6-oxo-6,7-dihydrothiazolo[4,5-h]quinazoline-2-carbimidate] | 10 µM | 10 µM
90% | 70% | 72% | 27% | 89% | 52% | COC(=N)c1nc2cc3c(Nc4ccc(OC)cc4F)ncnc3cc2s1 [Compound 15a, Methyl 8-[(2-fluoro-4-methoxyphenyl)amino]thiazolo[4,5-g]quinazoline-2-carbimidate] |  | 
